Consider 13 compounds from patent US9475816B2, “Substituted-1,4-dihydropyrazolo[4,3-b]indoles” (TAKEDA PHARMACEUTICAL COMPANY LIMITED, priority 2012, dated 2016).

Structures are written as SMILES. pIC50: −log10 of the molar value.

Experiment [1] has as its target T1, human MetAP2 enzyme (Homo sapiens, UniProt P50579). Nature of the experiment: MetAP2 enzyme assay, MetAP2 enzyme complexed with cobalt ions. The conditions noted are these: MetAP2 Co pIC50, 10 μM CoCl2; -log(IC50), IC50 molar.
Method: (§1) DNA encoding the full-length sequence of human MetAP2 enzyme is amplified by PCR and cloned into a pFastBac expression vector (Invitrogen). Recombinant baculovirus incorporating the MetAP2 construct is generated by transposition using the Bac-to-Bac system (Invitrogen). The expression of recombinant protein is carried out by infection of Spodoptera frugiperda Sf9 cells (Invitrogen) in 5L Wave Bioreactors (Wave Biotech). Recombinant protein is isolated from cellular extracts by binding to an SP Hitrap Fast Flow or SP Sepharose (Sigma) column, and the protein is eluted using a NaCl gradient. Partially purified extracts of MetAP2 are further purified by an AKTA FPLC over a Superdex-200 column (GE). The purity of MetAP2 protein is determined on denaturing SDS-PAGE gel.
(§2) The results for each well are expressed as percent inhibition and calculated using the equation:
Experiment [2] addresses T1, human MetAP2 enzyme. Nature of the experiment: MetAP2 enzyme assay, MetAP2 enzyme complexed with manganese ions. The conditions noted are these: MetAP2 Mn pIC50, 10 μM MnCl2; -log(IC50), IC50 molar.
Method: as §1, §2

T1 sequence (P50579 whole entry): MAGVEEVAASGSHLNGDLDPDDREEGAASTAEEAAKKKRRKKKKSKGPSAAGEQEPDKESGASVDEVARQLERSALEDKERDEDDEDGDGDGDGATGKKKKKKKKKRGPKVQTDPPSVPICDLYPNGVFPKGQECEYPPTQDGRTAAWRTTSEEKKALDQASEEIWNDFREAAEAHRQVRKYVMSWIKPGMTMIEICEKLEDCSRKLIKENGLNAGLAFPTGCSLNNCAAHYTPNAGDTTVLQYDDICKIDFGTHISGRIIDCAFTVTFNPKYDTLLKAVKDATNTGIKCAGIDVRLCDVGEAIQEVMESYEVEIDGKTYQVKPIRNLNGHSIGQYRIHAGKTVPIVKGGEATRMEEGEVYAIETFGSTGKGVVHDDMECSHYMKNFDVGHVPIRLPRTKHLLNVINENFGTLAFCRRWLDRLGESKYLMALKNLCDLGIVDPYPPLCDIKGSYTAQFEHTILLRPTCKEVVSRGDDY

Broadly, the pIC50 is −log10 of the IC50, conventionally taken in molar units. As to `Cc1nc2[nH]cnc2cc1-n1c2cc(Cl)ccc2c2[nH]ncc21` [Example 128, 6-Chloro-4-(5-methyl-3H-imidazo[4,5-b]pyridin-6-yl)-1,4-dihydropyrazolo[4,3-b]indole], the pIC50 against human MetAP2 enzyme [1] is 7.10; against human MetAP2 enzyme [2], 7.20.

Regarding `CCn1nc(C)c(-n2c3ccc(F)cc3c3[nH]ncc32)c1C` [Example 23, 4-(1-Ethyl-3,5-dimethyl-1H-pyrazol-4-yl)-7-fluoro-1,4-dihydropyrazolo[4,3-b]indole], the negative-log IC50 (pIC50) against human MetAP2 enzyme [1] is 8.00; at human MetAP2 enzyme [2] it was 7.80.

Regarding `Cc1cc(C(=O)NCCCO)ncc1-n1c2ccc(F)cc2c2[nH]ncc21` [Example 115, 5-(7-Fluoropyrazolo[4,3-b]indol-4(1H)-yl)-N-(3-hydroxypropyl)-4-methylpicolinamide], the pIC50 against human MetAP2 enzyme [1] was 7.90; against human MetAP2 enzyme [2], 8.00.

On to `Cc1nc(C(=O)N2CC(O)C2)ccc1-n1c2ccc(F)cc2c2[nH]ncc21` [Example 97, (5-(7-Fluoropyrazolo[4,3-b]indol-4(1H)-yl)-6-methylpyridin-2-yl)(3-hydroxyazetidin-1-yl)methanone], for which the negative-log IC50 (pIC50) on human MetAP2 enzyme [1] is 8.00; at human MetAP2 enzyme [2], 8.20.

In the case of `Cc1cc2cn[nH]c2cc1-n1c2ccc(F)cc2c2[nH]ncc21` [Example 26, 7-Fluoro-4-(5-methyl-1H-indazol-6-yl)-1,4-dihydropyrazolo[4,3-b]indole], the pIC50 against human MetAP2 enzyme [1] was 8.00; against human MetAP2 enzyme [2], 8.10.

For the compound `Cc1cc(C(=O)NC2(CO)CC2)ncc1-n1c2ccc(F)cc2c2[nH]ncc21` [Example 104, 5-(7-Fluoropyrazolo[4,3-b]indol-4(1H)-yl)-N-(1-(hydroxymethyl)cyclopropyl)-4-methylpicolinamide], the pIC50 was 8.00 on human MetAP2 enzyme [1] and 7.90 against human MetAP2 enzyme [2].

`COCCNC(=O)c1cc(C)c(-n2c3ccc(F)cc3c3[nH]ncc32)cn1` [Example 105, 5-(7-Fluoropyrazolo[4,3-b]indol-4(1H)-yl)-N-(2-methoxyethyl)-4-methylpicolinamide]: the figures for the pIC50 on human MetAP2 enzyme [1] and at human MetAP2 enzyme [2] were 7.30 and 7.20, respectively.

Take `O=c1[nH]c(N2CC[C@@H](O)C2)ncc1-n1c2ccc(F)cc2c2[nH]ncc21` [Example 84, (R)-5-(7-Fluoropyrazolo[4,3-b]indol-4(1H)-yl)-2-(3-hydroxypyrrolidin-1-yl)pyrimidin-4(3H)-one]: the pIC50 was 7.70 on human MetAP2 enzyme [1] and 8.00 at human MetAP2 enzyme [2].

Consider `Nc1ncc(C(=O)O)cc1-n1c2ccc(F)cc2c2[nH]ncc21` [Example 18, 6-Amino-5-(7-fluoropyrazolo[4,3-b]indol-4(1H)-yl)nicotinic acid], for which the pIC50 at human MetAP2 enzyme [1] was 7.00; at human MetAP2 enzyme [2], 7.20.

Take `Cc1nc(N)ccc1-n1c2ccc(F)cc2c2[nH]ncc21` [Example 42, 5-(7-Fluoropyrazolo[4,3-b]indol-4(1H)-yl)-6-methylpyridin-2-amine]: the pIC50 on human MetAP2 enzyme [1] was 8.00; against human MetAP2 enzyme [2], 7.80.

For the compound `Cc1cc(C(=O)N2CC(N)C2)ncc1-n1c2ccc(F)cc2c2[nH]ncc21` [Example 114, (3-Aminoazetidin-1-yl)(5-(7-fluoropyrazolo[4,3-b]indol-4(1H)-yl)-4-methylpyridin-2-yl)methanone], the pIC50 against human MetAP2 enzyme [1] is 7.60; against human MetAP2 enzyme [2], 7.90.

In the case of `Cc1nc2[nH]cnc2cc1-n1c2cc(F)c(F)cc2c2[nH]ncc21` [Example 130, 6,7-Difluoro-4-(5-methyl-3H-imidazo[4,5-b]pyridin-6-yl)-1,4-dihydropyrazolo[4,3-b]indole], the pIC50 against human MetAP2 enzyme [1] is 8.00; at human MetAP2 enzyme [2] it was 7.90.

`Cc1nc2c(cc1-n1c3ccc(F)cc3c3[nH]ncc31)[nH]c(=O)n2CCCO` [Example 81, 6-(7-Fluoropyrazolo[4,3-b]indol-4(1H)-yl)-3-(3-hydroxypropyl)-5-methyl-1H-imidazo[4,5-b]pyridin-2(3H)-one]: the pIC50 on human MetAP2 enzyme [1] was 8.30; at human MetAP2 enzyme [2], 8.20.
